This passage reports inhibition and IC50 results from ChEMBL document CHEMBL1135299, “Design, synthesis and biological activity of novel non-peptidyl endothelin converting enzyme inhibitors, 1-phenyl-tetrazole-formazan analogues” (Bioorg Med Chem Lett, 2002).

For the first test, the target named is T1, Endothelin-converting enzyme 1 (Rattus norvegicus) (UniProt P42893).
T1 sequence (whole entry): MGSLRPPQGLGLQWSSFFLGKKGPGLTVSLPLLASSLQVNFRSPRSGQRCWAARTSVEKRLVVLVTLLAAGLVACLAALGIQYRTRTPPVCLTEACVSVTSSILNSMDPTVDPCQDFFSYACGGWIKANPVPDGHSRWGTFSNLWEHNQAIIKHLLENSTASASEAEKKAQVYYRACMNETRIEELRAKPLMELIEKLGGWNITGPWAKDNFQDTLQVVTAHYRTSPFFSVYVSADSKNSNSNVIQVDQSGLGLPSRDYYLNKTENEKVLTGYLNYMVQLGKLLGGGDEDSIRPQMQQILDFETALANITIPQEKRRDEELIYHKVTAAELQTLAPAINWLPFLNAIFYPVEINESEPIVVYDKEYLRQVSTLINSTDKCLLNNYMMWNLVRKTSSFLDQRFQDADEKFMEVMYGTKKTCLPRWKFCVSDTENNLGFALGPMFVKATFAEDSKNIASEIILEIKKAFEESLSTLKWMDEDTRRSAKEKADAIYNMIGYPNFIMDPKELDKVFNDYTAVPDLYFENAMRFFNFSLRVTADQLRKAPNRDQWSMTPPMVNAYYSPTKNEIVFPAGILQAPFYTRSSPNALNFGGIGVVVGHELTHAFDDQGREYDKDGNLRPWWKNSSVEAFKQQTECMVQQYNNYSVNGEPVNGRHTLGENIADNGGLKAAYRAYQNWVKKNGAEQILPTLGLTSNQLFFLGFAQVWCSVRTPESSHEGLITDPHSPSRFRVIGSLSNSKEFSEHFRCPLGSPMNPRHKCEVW
The test can be described thus: Tested in vitro for percent inhibition of Endothelin-converting enzyme (ECE) of rat lung membrane at 10 uM. In kind it is tissue-based.
Turning to `Clc1ccc(N/N=C(\N=N\c2nnnn2-c2ccccc2)c2ccccc2)cc1`, the inhibition – broadly, the percentage by which the read-out fell short of the control – was determined as 37%.

A further test has as its target T2, Endothelin-converting enzyme 1 (Rattus norvegicus, UniProt P42893).
T2 sequence (P42893 whole entry): T1 sequence (whole entry)
The test can be described thus: Tested in vitro for inhibition of Endothelin-converting enzyme (ECE) of rat lung membrane. It counts as tissue-based.
For `CCC(C)c1ccc(N/N=C(\N=N\c2nnnn2-c2ccccc2)c2ccccc2)cc1` (stereo not given), inhibition was half-maximal at 2.7 µM (IC50).
Regarding `CC(C)(C)c1ccc(N/N=C(\N=N\c2nnnn2-c2ccccc2)c2ccccc2)cc1`, inhibition was half-maximal at 3.8 µM (IC50).
The same measure, in the same setting: for `CCCc1ccc(N/N=C(\N=N\c2nnnn2-c2ccccc2)c2ccccc2)cc1` the value was 2.6 µM.
Consider `CC(C)c1ccc(N/N=C(\N=N\c2nnnn2-c2ccccc2)c2ccccc2)cc1`, for which 3.4 µM corresponded to half-maximal inhibition (IC50).
On to `Cc1ccc(N/N=C(\N=N\c2nnnn2-c2ccccc2)c2ccccc2)cc1`, for which half-maximal inhibition (IC50) required 8.4 µM.
As to `Cc1nn(-c2ccccc2)c(NC(=O)NS(=O)(=O)c2ccc(Cl)cc2)c1C#N`, 0.042 µM corresponded to half-maximal inhibition (IC50).
In the case of `c1ccc(N/N=C(\N=N\c2nnnn2-c2ccccc2)c2ccccc2)cc1`, it took 10 µM to reach half-maximal inhibition (IC50). This IC50 lies about 240-fold higher than the previous one.
Take `CCc1ccc(N/N=C(\N=N\c2nnnn2-c2ccccc2)c2ccccc2)cc1`: the IC50 (commonly the concentration that inhibits the measured activity by half) was determined as 3.8 µM.
The same measure, in the same setting: as for `c1ccc(C(=N/Nc2ccc(C3CCCCC3)cc2)/N=N/c2nnnn2-c2ccccc2)cc1`, the figure is 3.6 µM.
